Test results as given in patent US11464228B2 (priority 2020, dated 2022).
Entries after “also recorded” stand apart in the source; their conditions may differ.

How the values were obtained:
Microcystis aeruginosa [1] = assay: Growth inhibition under natural light (sunlit window sill), OD680; format: cell-based; conditions: under sunlight, within 5 days
Experimental: (§1) Unless otherwise specified, the Microcystis aeruginosa species used in the following examples is the high-toxin-producing strain FACHB-905.
(§2) The concentration of Microcystis aeruginosa and other bacteria is measured with an ultraviolet spectrophotometer (Shimadzu, UV-2700), and the concentration is characterized by the optical density of liquid at 680 nm and 600 nm, and recorded as OD680 and OD600, respectively.
100 mL of BG-11 medium was added to 150 mL Erlenmeyer flasks, and was inoculated with cyanobacteria to an initial OD680 of 0.2 under aseptic conditions. A certain volume of the AA stock solution was added to the Erlenmeyer flasks, so that the dosage of AA was 10 mg/L or 20 mg/L. At the same time, a control experiment (Control) without AA was established. The cyanobacteria were placed at a sunlit window sill for incubation. At the beginning of the incubation and after 0.5 d, 1 d, 1.5 d, 2 d, 3 d, 4 d, and 5 d of the incubation, samples were taken to detect the OD680 under aseptic conditions.

Microcystis aeruginosa [2] = assay: Actual photochemical quantum yield of the photosystem (Water-PAM); format: cell-based
Experimental: as §1
The actual photochemical quantum yield is measured using a Water-PAM phytoplankton analyzer (Walz), and 2.5 mL of algae culture is taken to measure Fm′ and Fs after light adaptation. The calculation formula for the actual photochemical quantum yield is as follows: ϕe=ΔF/Fm′=(Fm′−Fs)/Fm′ wherein ϕe is the actual photochemical quantum yield, and Fm′ and Fs are the maximum chlorophyll fluorescence and the stable chlorophyll fluorescence of the algae culture after light adaptation, respectively (“Effects of different algaecides on the photosynthetic capacity, cell integrity and microcystin-LR release of Microcystis aeruginosa”, Sci. Total Environ. 2013, 463, 111-119).
100 mL of BG-11 medium was added to 150 mL Erlenmeyer flasks, and was inoculated with cyanobacteria to an initial OD680 of 0.2 under aseptic conditions. Different volumes of the AA stock solution were added to the Erlenmeyer flasks, so that the dosage of AA was 7 mg/L, 10 mg/L and 15 mg/L, respectively. At the same time, a control experiment (Control) without AA was established. […] At the beginning of the incubation and after 0.5 d, 1 d, 1.5 d, 2 d, 3 d, 4 d, and 5 d of the incubation, samples were taken to detect the chlorophyll fluorescence parameters under aseptic conditions.

Salmonella = assay: Bacterial growth with AA, OD600 after 24 h; format: cell-based
Experimental: (§3) The bacteria used in the following examples are Escherichia coli, Salmonella, Bacillus subtilis and Staphylococcus aureus, all of which are provided by the School of Life Sciences, Nanjing University. The bacteria are cultured with an LB nutrient broth. The main components of the LB nutrient broth include: tryptone 10.0 g/L, yeast extract 5.0 g/L, and sodium chloride 10.0 g/L.
(§4) Microcystis aeruginosa is cultured in a light incubator (GZX-250BS-III), provided by Shanghai CIMO Medical Instrument Co., Ltd., with a light intensity of 3000 LX, a light-dark time ratio of 12:12, and a temperature setting of 25° C. The four kinds of bacteria are all cultured in a biochemical incubator (SPX-150), provided by Shanghai Yuejin Medical Instruments Co., Ltd., with a temperature setting of 37° C.
as §2
(§5) 4 mL of nutrient broth was added to 9 test tubes under aseptic conditions, and the test tubes were numbered 1 to 9. A broth stock solution containing 1,536 mg/L AA was prepared, and 4 mL of which was taken and added to the No. 9 test tube. After the solution in the No. 9 test tube was uniformly mixed, 4 mL of the mixed solution in the No. 9 test tube was taken and added to the No. 8 test tube. By analogy, dilution was performed by the stepwise dilution method to the No. 2 test tube, and after uniform mixing, 4 mL of the solution in the No. 2 test tube was taken and discarded. The No. 1 test tube without AA was taken as the blank group (Control). The final concentrations of AA in each test tube from No. 1 to No. 9 were 0 mg/L, 6 mg/L, 12 mg/L, 24 mg/L, 48 mg/L, 96 mg/L, 192 mg/L, 384 mg/L, and 768 mg/L, respectively. A suspension of the bacteria was diluted with nutrient broth to an OD600 of 0.05. 100 μL of the diluted suspension was added to each of the 9 test tubes, and the test tubes were sealed with sterilized sealing films. After completing the above operations, the bacterial solutions were put into a biochemical incubator, and the OD600 in each test tube was measured after incubation for 24 h.

Escherichia coli = assay: Bacterial growth with AA, OD600 after 24 h; format: cell-based; conditions: for growth rate (OD600) / effect on growth (OD600): 24 h; for effect on growth (OD600): 6-768 mg/L, vs control
Experimental: as §3, §4, §2, §5

Staphylococcus aureus = assay: Bacterial growth with AA, OD600 after 24 h; format: cell-based
Experimental: as §3, §4, §2, §5

Bacillus subtilis = assay: Bacterial growth with AA, OD600 after 24 h; format: cell-based; conditions: for effect on growth (OD600): 6-768 mg/L, 24 h, vs control
Experimental: as §3, §4, §2, §5

Microcystis aeruginosa [3] = assay: Comparison of algaecides, inhibition rate from chlorophyll a content; format: cell-based; conditions: incubated 3 days; 15 mg/L
Description: as §1
The measurement of chlorophyll a refers to the method in the literature (“Potent removal of cyanobacteria with controlled release of toxic secondary metabolites by a titanium xerogel coagulant”, Water Res. 2018, 128, 341-349). Specifically, collected algae culture is filtered with a 0.7 μm GF/F glass filter membrane (Whatman). The collected cells are frozen overnight in a refrigerator at −4° C. Then 90% acetone is added for overnight extraction. The extract is centrifuged in a high-speed refrigerated centrifuge (Tianuoda, CT14RD) at 10,000 rpm and 4° C. for 10 min to collect the supernatant, and the absorbance is detected at 630 nm, 663 nm, 645 nm and 750 nm. The formula for calculating the content of chlorophyll a is as follows:
[formula] wherein A663, A750, A645 and A750 are the absorbance of the supernatant at 663 nm, 750 nm, 645 nm and 750 nm, respectively. Ve is the volume of an extracted solution, Vs is the volume of a filtered solution, and δ is the optical path of a cuvette. The calculation formula for the inhibition rate of an algaecide on Microcystis aeruginosa is as follows: […]
300 mL of BG-11 medium was added to 500 mL Erlenmeyer flasks, and was inoculated with cyanobacteria of 0.2 calculated as OD680 under aseptic conditions. […]

[4] = system: Microcystis aeruginosa (FACHB-905); assay: Algicidal effect on toxin-producing Microcystis aeruginosa, OD680 over 5 d in light incubator; format: cell-based
Experimental: as §4, §2
(§6) 100 mL of BG-11 medium was added to a 150 mL Erlenmeyer flasks, and was inoculated with cyanobacteria of 0.2 calculated as OD680 under aseptic conditions. Different volumes of the AA stock solution were added to the Erlenmeyer flasks to make sure that the dosage of AA was 5 mg/L, 7 mg/L, 10 mg/L, 15 mg/L and 20 mg/L in different Erlenmeyer flasks. At the same time, a control experiment (Control) without AA was established. The cyanobacteria were put in a light incubator for culture. Considering the existing reports that the most suitable growth light for cyanobacteria was 2,000-4,000 LX (see “Freshwater Algae Culture Collection at the Institute of Hydrobiology”, website “http://algae.ihb.ac.cn/Products/ProductDetail.aspx?product=523”, and the literature “The effect of light on the growth and chlorophyll fluorescence of Chlorella and Microcystis aeruginosa”, Journal of Xi'an University of Arts and Science, 2019, 22, 73-77”), 3,000 LX was selected as the light intensity in the present example. At the beginning of the incubation and after 0.5 d, 1 d, 1.5 d, 2 d, 3 d, 4 d and 5 d of the incubation, samples were taken to detect the OD680 under aseptic conditions.

[5] = system: Microcystis aeruginosa (FACHB-469); assay: Algicidal effect on non-toxic Microcystis aeruginosa, OD680 over 5 d in light incubator; format: cell-based
Experimental: as §4, §2, §6
Except for the different cyanobacteria strain, other operations are the same as those in step (1).

Daphnia magna = conditions: cited from earlier work
[6] = 25° C.; cited from earlier work
[7] = pH 6.4; cited from earlier work
Microcystis aeruginosa [8] = assay: Algicidal effect at different initial densities of Microcystis aeruginosa, OD680; format: cell-based; conditions: 15 mg/L; initial OD680 0.11 to 1.0 (up to 2.59×10^7 cells/mL); 5 d
Experimental: as §1, §2
100 mL of BG-11 medium was added to 150 mL Erlenmeyer flasks, and was inoculated with cyanobacteria to finally obtain solutions with the OD680 of 0.11, 0.27, 0.62 and 1.0, respectively, under aseptic conditions. A certain volume of the AA stock solution was added to the Erlenmeyer flasks, so that the dosage of AA is 15 mg/L. At the same time, the control experiments (Control) without AA were established for different cyanobacteria densities. The cyanobacteria were put in a light incubator for culture. At the beginning of the incubation and after 1 d, 2 d, 3 d, 4 d, and 5 d of the incubation, samples were taken to detect the OD680 under aseptic conditions.

[9] = concentration less than 738 mg/L

Question: Which results are given for `CC(=O)CC(C)=O` [AA, acetylacetone]?
Answer: effect on growth (OD680) (Microcystis aeruginosa [1]; 10 mg/L): significantly inhibited; effect on growth (OD680) (Microcystis aeruginosa [1]; 20 mg/L): significantly inhibited; actual photochemical quantum yield (Microcystis aeruginosa [2]; after 1 day of incubation, 7, 10, 15 mg/L): significantly inhibited; actual photochemical quantum yield (Microcystis aeruginosa [2]; second day of growth, AA of greater than 7 mg/L): 0; growth rate (OD600) (Salmonella; 768 mg/L, still a growth trend within 24 h): decreased; growth rate (OD600) (Salmonella; 6-384 mg/L, compared with the control group): increased; effect on growth (OD600) (Salmonella; 6-768 mg/L, 24 h, vs control): no inhibitory effect; also recorded: basically had no influence on the growth; killing of bacteria (Salmonella; [9]): will not kill; growth rate (OD600) (Escherichia coli; 12 mg/L): slightly lower than that of the control group; effect on growth (OD600) (Escherichia coli): basically had no influence on the growth; effect on growth (OD600) (Escherichia coli; listed as acetylacetone): no inhibitory effect; growth rate (OD600) (Escherichia coli; concentration increased to 24 mg/L): increased slightly; killing of bacteria (Escherichia coli; [9]): will not kill; effect on growth (OD600) (Staphylococcus aureus; 6-768 mg/L, 24 h, vs control): basically had no influence on the growth; effect on growth (OD600) (Staphylococcus aureus; 6-768 mg/L, 24 h, vs control, listed as acetylacetone): no inhibitory effect; killing of bacteria (Staphylococcus aureus; [9]): will not kill; effect on growth (OD600) (Staphylococcus aureus; concentration of up to 768 mg/L): can still promote the growth; effect on growth (OD600) (Bacillus subtilis): basically had no influence on the growth; effect on growth (OD600) (Bacillus subtilis; listed as acetylacetone): no inhibitory effect; killing of bacteria (Bacillus subtilis; [9]): will not kill; inhibition rate on Microcystis aeruginosa (chlorophyll a) (Microcystis aeruginosa [3]): higher than all other algaecides; effect on growth (OD680) ([4]; 5 mg/L, compared to the control group): no significant effect; effect on growth (OD680) ([4]; 7 mg/L): inhibited, but the growth curve of which is still increase; algicidal effect on growth (OD680) ([4]; 10 mg/L, within 5 d, weaker than 15 mg/L): continued to show algicidal effect; growth curve (OD680) ([4]; 20 mg/L, compared with 15 mg/L AA): no significant change in the growth curve; optical density (OD680) ([4]; AA concentration greater than 15 mg/L, starting from day 1.5): began to decrease; effect on growth (OD680) ([4]; first day of addition, 5-20 mg/L): no significant effect; algicidal effect on growth (OD680) ([5]; 5 mg/L): still showed algicidal effect; algicidal effect on growth (OD680) ([5]; 7 mg/L): a certain algicidal effect; growth curve (OD680) ([5]; 20 mg/L, compared with 10 mg/L and 15 mg/L AA): did not change significantly; effect on growth (OD680) ([5]; dosage greater than 10 mg/L): significantly inhibited; effect on growth (OD680) ([5]; on day 1.5): inhibited; median lethal dose (Daphnia magna): higher than 50 mg/L; Henry's law constant [6]: 2.35×10^−6 atm m^3/mol; aquatic oxidation rate [7]: 9.9e-09 L/mol/s; algicidal performance (OD680) (Microcystis aeruginosa [8]): excellent algicidal performance

Question: Which “inhibition rate on Microcystis aeruginosa (chlorophyll a)” value (Microcystis aeruginosa [3]) does the source give for `O=C(O)c1cc(O)c(O)c(O)c1` [gallic acid, reference compound] here?
Answer: The value was “close to that of AA”.
